Experimental findings from US7491794B2, “Macrocyclic compounds as inhibitors of viral replication” (Intermune, Inc., priority 2003, dated 2009) are described below.

Structures are written as SMILES.

In the first assay the target is T1, NS3-NS4A protease (Hepatitis C virus genotype 1a, UniProt P27958).
T1 construct: Recombinant E. coli or Baculovirus full-length NS3 was diluted to 3.33 μM with assay buffer; made in house; host or cells: E. coli or baculovirus (BV) system
T1 sequence (P27958 1027-1657): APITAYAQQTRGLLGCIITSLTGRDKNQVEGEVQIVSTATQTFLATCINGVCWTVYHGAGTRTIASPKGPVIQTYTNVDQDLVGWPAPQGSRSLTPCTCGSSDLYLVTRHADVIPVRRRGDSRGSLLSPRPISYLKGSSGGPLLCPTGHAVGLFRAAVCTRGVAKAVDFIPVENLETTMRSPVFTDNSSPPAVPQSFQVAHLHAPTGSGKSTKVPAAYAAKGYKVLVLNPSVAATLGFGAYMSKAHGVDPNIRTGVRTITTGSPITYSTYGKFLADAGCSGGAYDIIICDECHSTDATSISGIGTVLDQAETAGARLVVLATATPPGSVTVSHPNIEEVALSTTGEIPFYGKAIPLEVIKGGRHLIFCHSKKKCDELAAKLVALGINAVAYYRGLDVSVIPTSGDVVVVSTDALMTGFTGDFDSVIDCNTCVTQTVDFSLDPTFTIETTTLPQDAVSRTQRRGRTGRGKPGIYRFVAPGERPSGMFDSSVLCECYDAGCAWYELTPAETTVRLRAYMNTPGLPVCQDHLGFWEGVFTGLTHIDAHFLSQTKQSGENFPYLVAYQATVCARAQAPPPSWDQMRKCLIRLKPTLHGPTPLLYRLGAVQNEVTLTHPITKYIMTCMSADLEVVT
The experiment in a line: NS3-NS4A protease assay (NS3 inhibition assay, RETS1 substrate), Section B. In kind it is biochemical.
Conditions: not given
The procedure:
NS3 complex formation with NS4A-2
Recombinant E. coli or Baculovirus full-length NS3 was diluted to 3.33 μM with assay buffer and the material transferred to an eppendorf tube and place in water bath in 4° C. refrigerator. The appropriate amount of NS4A-2 to 8.3 mM in assay buffer was added to equal the volume of NS3 in step 2.1.1 (conversion factor −3.8 mg/272 μL assay buffer). The material was transferred to an eppendorf tube and placed in a water bath in a 4° C. refrigerator.
After equilibration to 4° C., equal volumes of NS3 and NS4A-2 solutions were combined in an eppendorf tube, mixed gently with a manual pipettor, and the mixture incubated for 15 minutes in the 4° C. water bath. Final concentrations in the mixture were 1.67 μM NS3, 4.15 mM NS4A-2 (2485-fold molar excess NS4A-2).
After 15 minutes at 4° C., the NS3/NS4A-2 eppendorf tube was removed and placed in a room temperature water bath for 10 minutes. NS3/NS4A-2 was aliquoted at appropriate volumes and store at −80° C. (E. coli NS3 run at 2 nM in assay, aliquot at 25 μL. BV NS3 run at 3 nM in assay, aliquot at 30 μL.
Step 2.2.5. Sample compounds were dissolved to 10 mM in DMSO then diluted to 2.5 mM (1:4) in DMSO.
Step 2.2.6. The E. coli NS3/NS4A-2 was diluted to 4 nM NS3 (1:417.5 of 1.67 μM stock−18 μL 1.67 μM stock+7497 μL assay buffer).
The BV NS3/NS4A-2 was diluted to 6 nM NS3 (1:278.3 of 1.67 μM stock−24 μL 1.67 μM stock+6655 μL assay buffer).
Step 2.2.7. Using the manual multichannel pipettor, and being careful not to introduce bubbles into the plate, 50 μL assay buffer was added to wells A01-H01 of a black Costar 96-well polypropylene storage plate.
Step 2.2.8. Using the manual multichannel pipettor, and being careful not to introduce bubbles into the plate, 50 μL of diluted NS3/NS4A-2 from step 2.2.6 was added to wells A02-H12 of plate in step 2.2.7.
Step 2.2.9. Using the manual multichannel pipettor, and being careful not to introduce bubbles into the plate, 25 μL of the wells in drug dilution plate in step 2.2.5 were transferred to corresponding wells in assay plate in step 2.2.8. The tips on multichannel pipettor were changed for each row of compounds transferred.
Step 2.2.10. Using the manual multichannel pipettor, and being careful not to introduce bubbles into the plate, the wells from the assay plate in step 2.2.9 were mixed by aspirating and dispensing 35 μL of the 75 μL in each well five times. The tips on multichannel pipettor were changed for each row of wells mixed.
Step 2.2.11. The plate was covered with a polystyrene plate lid, and the plate from step 2.2.10 containing NS3 protease and sample compounds was pre-incubated 10 minutes at room temperature.
While the plate from step 2.2.11 was pre-incubating, the RETS1 substrate was diluted in a 15 mL polypropylene centrifuge tube. The RETS1 substrate was diluted to 8 μM (1:80.75 of 646 μM stock−65 μL 646 μM stock+5184 μL assay buffer).
After the plate in step 2.2.11 was done pre-incubating, and using the manual multichannel, 25 μL of substrate was added to all wells on the plate. The contents of the wells were quickly mixed, as in step 2.2.10, but mixing 65 μL of the 100 μL in the wells.
The plate was read in kinetic mode on the Molecular Devices SpectraMax Gemini XS plate reader. Reader settings: Read time: 30 minutes, Interval: 36 seconds, Reads: 51, Excitation λ: 335 nm, Emission λ: 495 nm, cutoff: 475 nm, Automix: off, Calibrate: once, PMT: high, Reads/well: 6, Vmax pts: 21 or 28/51 depending on length of linearity of reaction.
IC50s were determined using a four parameter curve fit equation, and converted to Ki's using the following Km's:
where Ki=IC50/(1+[S]/Km))
As a reminder, the IC50 is the concentration that gives 50% inhibition. `CC(C)[C@@H](N)C(=O)N[C@H]1CCCCC/C=C\[C@@H]2C[C@@]2(C(=O)O)NC(=O)[C@@H]2C[C@@H](OC(=O)N3CCc4ccccc4C3)CN2C1=O` [AR00298990, (1S,4R,6S,14S,18R)-14-(2-Amino-3-methyl-butyrylamino)-18-(3,4-dihydro-1H-isoquinoline-2-carbonyloxy)-2,15-dioxo-3,16-diaza-tricyclo[14.3.0.0^4,6]nonadec-7-ene-4-carboxylic acid] registered an IC50 below 10 µM.

Still in this assay, the particulars now being: read-out: NS3-NS4A IC50.
For the molecule `CC(C)(C)OC(=O)N[C@H]1CCCCC/C=C\[C@H]2C[C@]2(C(=O)O)NC(=O)[C@@H]2C[C@@H](OC(=O)N3CCc4ccccc4C3)CN2C1=O` [AR00220122, (1S,4S,6R,14S,18R)-14-tert-Butoxycarbonylamino-18-(3,4-dihydro-1H-isoquinoline-2-carbonyloxy)-2,15-dioxo-3,16-diaza-tricyclo[14.3.0.0^4,6]nonadec-7-ene-4-carboxylic acid], the IC50 is below 50 µM.

In the case of `CN(C)CC1c2ccccc2CCN1C(=O)O[C@@H]1C[C@H]2C(=O)N[C@]3(C(=O)O)C[C@H]3/C=C\CCCCC[C@H](NC(=O)OC(C)(C)C)C(=O)N2C1` (stereo partly drawn) [AR00333224, (1S,4R,6S,14S,18R)-14-tert-Butoxycarbonylamino-18-(1-dimethylaminomethyl-3,4-dihydro-1H-isoquinoline-2-carbonyloxy)-2,15-dioxo-3,16-diaza-tricyclo[14.3.0.0^4,6]nonadec-7-ene-4-carboxylic acid], the concentration for half-maximal inhibition (IC50) was below 10 µM.

Take `CC(C)(C)OC(=O)N[C@H]1CCCCC/C=C\[C@@H]2C[C@@]2(C(=O)O)NC(=O)[C@@H]2C[C@@H](OC(=O)N3CCc4c([nH]c5ccccc45)C3)CN2C1=O` [AR00226825, (1S,4R,6S,14S,18R)-14-tert-Butoxycarbonylamino-2,15-dioxo-18-(1,3,4,9-tetrahydro-b-carboline-2-carbonyloxy)-3,16-diaza-tricyclo[14.3.0.0^4,6]nonadec-7-ene-4-carboxylic acid]: the 50% inhibitory concentration (IC50) was below 10 µM.

As for `CC(C)(C)C(=O)N[C@H]1CCCCC/C=C\[C@@H]2C[C@@]2(C(=O)O)NC(=O)[C@@H]2C[C@@H](OC(=O)N3CCc4ccccc4C3)CN2C1=O` [AR00248687, (1S,4R,6S,14S,18R)-18-(3,4-Dihydro-1H-isoquinoline-2-carbonyloxy)-14-(2,2-dimethyl-propionylamino)-2,15-dioxo-3,16-diaza-tricyclo[14.3.0.0^4,6]nonadec-7-ene-4-carboxylic acid], the IC50 was below 1 µM.

Take `CC(C)(C)OC(=O)N[C@H]1CCCCC/C=C\[C@@H]2C[C@@]2(C(=O)O)NC(=O)[C@@H]2C[C@@H](OC(=O)N3CCc4cc(C(F)(F)F)ccc4C3)CN2C1=O` [AR00294383, (1S,4R,6S,14S,18R)-14-tert-Butoxycarbonylamino-2,15-dioxo-18-(6-trifluoromethyl-3,4-dihydro-1H-isoquinoline-2-carbonyloxy)-3,16-diaza-tricyclo[14.3.0.0^4,6]nonadec-7-ene-4-carboxylic acid]: the IC50 was below 10 µM.

Take `CC(C)C(=O)N[C@H]1CCCCC/C=C\[C@@H]2C[C@@]2(C(=O)O)NC(=O)[C@@H]2C[C@@H](OC(=O)N3CCc4ccccc4C3)CN2C1=O` [AR00248688, (1S,4R,6S,14S,18R)-18-(3,4-Dihydro-1H-isoquinoline-2-carbonyloxy)-14-isobutyrylamino-2,15-dioxo-3,16-diaza-tricyclo[14.3.0.0^4,6]nonadec-7-ene-4-carboxylic acid]: the IC50 was below 10 µM.

For `COc1ccc2c(c1)CCN(C(=O)O[C@@H]1C[C@H]3C(=O)N[C@]4(C(=O)O)C[C@H]4/C=C\CCCCC[C@H](NC(=O)OC(C)(C)C)C(=O)N3C1)C2CN(C)C` (stereo partly drawn) [AR00333277, (1S,4R,6S,14S,18R)-14-tert-Butoxycarbonylamino-18-(1-dimethylaminomethyl-6-methoxy-3,4-dihydro-1H-isoquinoline-2-carbonyloxy)-2,15-dioxo-3,16-diaza-tricyclo[14.3.0.0^4,6]nonadec-7-ene-4-carboxylic acid], the half-maximal inhibitory concentration (IC50) is below 10 µM.

With `CC(C)(C)OC(=O)N[C@H]1CCCCC/C=C\[C@@H]2C[C@@]2(C(=O)O)NC(=O)[C@@H]2C[C@@H](NC(=O)N3CCCc4ccccc43)CN2C1=O` [AR00304160, (1S,4R,6S,14S,18R)-14-tert-Butoxycarbonylamino-18-[(3,4-dihydro-2H-quinoline-1-carbonyl)-amino]-2,15-dioxo-3,16-diaza-tricyclo[14.3.0.0^4,6]nonadec-7-ene-4-carboxylic acid], the concentration for half-maximal inhibition (IC50) was below 50 µM.

`O=C(N[C@H]1CCCCC/C=C\[C@@H]2C[C@@]2(C(=O)O)NC(=O)[C@@H]2C[C@@H](OC(=O)N3CCc4ccccc4C3)CN2C1=O)OC1CCCC1` [AR00247310, (1S,4R,6S,14S,18R)-14-Cyclopentyloxycarbonylamino-18-(3,4-dihydro-1H-isoquinoline-2-carbonyloxy)-2,15-dioxo-3,16-diaza-tricyclo[14.3.0.0^4,6]nonadec-7-ene-4-carboxylic acid]: the half-maximal inhibitory concentration (IC50) is below 1 µM.

On to `CC(C)(C)OC(=O)N[C@H]1CCCCC/C=C\[C@@H]2C[C@@]2(C(=O)O)NC(=O)[C@@H]2C[C@@H](NC(=O)N3CCc4ccccc4C3)CN2C1=O` [AR00287262, (1S,4R,6S,14S,18R)-14-tert-butoxycarbonylamino-18-[(3,4-dihydro-1H-isoquinoline-2-carbonyl)-amino]-2,15-dioxo-3,16-diaza-tricyclo[14.3.0.0^4,6]nonadec-7-ene-4-carboxylic acid], for which the IC50 is below 10 µM.

With `CC(C)(C)OC(=O)N[C@H]1CCCCC/C=C\[C@@H]2C[C@@]2(C(=O)O)NC(=O)[C@@H]2C[C@@H](OC(=O)N3CCc4ccc(Cl)cc4C3)CN2C1=O` [AR00304062, (1S,4R,6S,14S,18R)-14-tert-Butoxycarbonylamino-18-(7-chloro-3,4-dihydro-1H-isoquinoline-2-carbonyloxy)-2,15-dioxo-3,16-diaza-tricyclo[14.3.0.0^4,6]nonadec-7-ene-4-carboxylic acid], the IC50 is below 10 µM.

Consider `O=C(NC1CCOC1)N[C@H]1CCCCC/C=C\[C@@H]2C[C@@]2(C(=O)O)NC(=O)[C@@H]2C[C@@H](OC(=O)N3CCc4ccccc4C3)CN2C1=O` (stereo partly drawn) [AR00320221, (1S,4R,6S,14S,18R)-18-(3,4-Dihydro-1H-isoquinoline-2-carbonyloxy)-2,15-dioxo-14-[3-(tetrahydro-furan-3-yl)-ureido]-3,16-diaza-tricyclo[14.3.0.0^4,6]nonadec-7-ene-4-carboxylic acid], for which the 50% inhibitory concentration (IC50) was below 1 µM.

On to `O=C(N[C@H]1CCCCC/C=C\[C@@H]2C[C@@]2(C(=O)O)NC(=O)[C@@H]2C[C@@H](OC(=O)N3CCc4ccccc4C3)CN2C1=O)C1CCCC1` [AR00248689, (1S,4R,6S,14S,18R)-14-(Cyclopentanecarbonyl-amino)-18-(3,4-dihydro-1H-isoquinoline-2-carbonyloxy)-2,15-dioxo-3,16-diaza-tricyclo[14.3.0.0^4,6]nonadec-7-ene-4-carboxylic acid], for which the IC50 is below 1 µM.

For `CC(C)(C)OC(=O)N[C@H]1CCCCC/C=C\[C@@H]2C[C@@]2(C(=O)O)NC(=O)[C@@H]2C[C@@H](OC(=O)N3Cc4ccc(OCCN5CCOCC5)cc4C3)CN2C1=O` [AR00371946, (1S,4R,6S,14S,18R)-14-tert-Butoxycarbonylamino-18-[5-(2-morpholin-4-yl-ethoxy)-1,3-dihydro-isoindole-2-carbonyloxy]-2,15-dioxo-3,16-diaza-tricyclo[14.3.0.0^4,6]nonadec-7-ene-4-carboxylic acid], the IC50 is below 0.1 µM.
